Results taken from patent US20240158693A1, “Probe for Hydrogen Sulfide Detection, Method for Manufacturing Same, and Composition for Hydrogen Sulfide Detection, Comprising Same” (Korea Institute of Ocean Science &Technology, priority 2020, published 2024).
Counter-ions that a name gives are not always drawn. Blank lines part the entries; values can stand above or below the compound they belong to.

Experiments:
[1] = Optimization of sensing conditions for H2S detection (biothiols with and without 2-FBBA)
Experimental: The samples containing HSA (100 μM) and each biothiol (H2S 100 μM, Cys 250 μM, Hcy 100 μM, and GSH 10 μM) with and without 2-formyl benzene boronic acid (2-FBBA) in SPB (pH 7.4, 20 mM) were incubated for 15 minutes at 25° C. KF-DNBS (25 μM, 10% DMSO) was added to the samples followed by the measurement of fluorescence spectra under excitation at 420 nm at 37° C.

[2] = Selectivity of KF-DNBS toward H2S over other biological analytes
Experimental: Next, the selectivity of KF-DNBS with HSA toward H2S was investigated using various biologically relevant species, including biothiols (Cys, Hcy, and GSH), reactive sulfur species (RSS), and reactive oxygen species (ROS) (HSO4^−, SO4^2−, SO3^2−, S2O3^2−, SCN^−, H2O2, and ClO^−), and anions (CN^−, F^−, Br^−, NO3^−, NO2^−, HCO3^−, and CH3CO2^−).
A blank containing no analyte and a sample containing each analyte (H2S 100 μM, Cys 250 μM, Hcy 100 μM, GSH 10 μM, HSO4^− 100 μM, SO4^2− 100 μM, SO3^2− 100 μM, S2O3^2− 100 μM, SCN^− 100 μM, CN^− 100 μM, F^− 100 μM, Br^− 100 μM, NO3^− 100 μM, NO2^− 100 μM, HCO3^− 100 μM, CH3CO2^− 100 μM, H2O2 100 μM, ClO^− 100 μM) were prepared followed by the addition of HSA (100 μM) and 2-FBBA (2 mM) to SPB (pH 7.4, 20 mM). After incubation for 15 minutes at 25° C., KF-DNBS (25 μM, 10% DMSO) was added to each sample, and then fluorescence intensity at 500 nm was recorded using the fluorescence spectrophotometer under excitation at 420 nm at 37° C. The experiment was conducted in triplicate.

[3] = target: HSA (Homo sapiens, UniProt P02768); assay: Comparison of fluorescence change of KF and KF-DNBS with HSA; conditions: SPB pH 7.4, excitation 420 nm
Sequence of HSA (P02768 25-609): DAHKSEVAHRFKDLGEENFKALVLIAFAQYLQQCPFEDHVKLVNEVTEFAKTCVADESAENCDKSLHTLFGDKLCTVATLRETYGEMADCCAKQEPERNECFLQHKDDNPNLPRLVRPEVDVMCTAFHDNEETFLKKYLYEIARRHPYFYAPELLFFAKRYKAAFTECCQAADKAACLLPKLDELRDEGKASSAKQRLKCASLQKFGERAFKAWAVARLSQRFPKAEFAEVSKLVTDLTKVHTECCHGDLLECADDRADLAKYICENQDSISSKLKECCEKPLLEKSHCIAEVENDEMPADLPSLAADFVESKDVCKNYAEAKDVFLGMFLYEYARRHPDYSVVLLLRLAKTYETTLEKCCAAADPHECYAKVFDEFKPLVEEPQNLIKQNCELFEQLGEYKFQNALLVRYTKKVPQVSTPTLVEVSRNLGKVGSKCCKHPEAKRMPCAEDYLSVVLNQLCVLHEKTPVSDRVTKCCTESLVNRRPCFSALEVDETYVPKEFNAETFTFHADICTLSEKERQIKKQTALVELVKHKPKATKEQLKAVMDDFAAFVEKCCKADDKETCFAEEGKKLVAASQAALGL
Experimental: Stock solutions of KF and KF-DNBS were prepared in DMSO, and a stock solution of HSA was prepared in distilled water. Blanks, each containing only KF or KF-DNBS (25 μM, 10% DMSO), and samples, each containing KF or KF-DNBS (25 μM, 10% DMSO) with HSA (100 μM) in sodium phosphate buffer (SPB, pH 7.4, 20 mM), were prepared. Fluorescence spectra were then recorded using the fluorescence spectrophotometer under excitation at 420 nm.

[4] = Sensing behavior of KF-DNBS with HSA as selective H2S probe (H2S titration, LOD)
Experimental: The experiment was carried out in triplicate. The limit of detection (LOD) was calculated using 3σ/slope based on the titration experiment, in which σ was the standard deviation of the blank measurements and the slope value was obtained from a plot of the fluorescence intensity versus H2S concentration.

[5] = KF-DNBS 25 μM with HSA 100 μM, 2-FBBA 2 mM, SPB pH 7.4

Compound: 2-formyl benzene boronic acid [2-FBBA, reference compound]
- masking of the reactivity of Cys and Hcy upon KF-DNBS ([1]; 2-FBBA 2 mM, Cys 250 μM, Hcy 100 μM, HSA 100 μM): completely block

Compound: CCN(CC)c1ccc(-c2cc3c(s2)c(-c2ccc(OS(=O)(=O)c4ccc([N+](=O)[O-])cc4[N+](=O)[O-])cc2)cc(=O)n3C)cc1 (as salt: benzenesulfonate) [KF-DNBS, 4-(2-(4-(diethylamino)phenyl)-4-methyl-5-oxo-4,5-dihydrothieno[3,2-b]pyridin-7-yl)phenyl 2,4-dinitrobenzenesulfonate]
- melting point: 96 to 98 °C

Compound: CCN(CC)c1ccc(-c2cc3c(s2)c(-c2ccc(OS(=O)(=O)c4ccc([N+](=O)[O-])cc4[N+](=O)[O-])cc2)cc(=O)n3C)cc1 [KF-DNBS, 4-(2-(4-(diethylamino)phenyl)-4-methyl-5-oxo-4,5-dihydrothieno[3,2-b]pyridin-7-yl)phenyl 2,4-dinitrobenzenesulfonate]
- fluorescence enhancement at 500 nm with various analytes ([2]; KF-DNBS 25 μM, HSA 100 μM, 2-FBBA 2 mM, SPB pH 7.4, 18 analytes): remarkable fluorescence enhancement was observed only for H2S
- selectivity toward H2S ([2]; KF-DNBS with HSA and masking reagent 2-FBBA, biothiols, RSS, ROS, anions): high selectivity
- fluorescence in the presence or absence of HSA ([3]; 25 μM, 10% DMSO, HSA 100 μM): weak fluorescence
- fluorescence change induced by Cys and Hcy ([1]; KF-DNBS 25 μM with HSA 100 μM, Cys 250 μM, Hcy 100 μM, without 2-FBBA): noticeable fluorescence change
- fluorescence intensity at 500 nm on addition of H2S ([1]; KF-DNBS 25 μM with HSA 100 μM, H2S 100 μM, SPB pH 7.4, without 2-FBBA): increased significantly
- selectivity to H2S over other biothiols ([1]; KF-DNBS with HSA in the presence of 2-FBBA (2 mM)): superior selectivity
- H2S concentration range of linear fluorescence increase [4, 5]: 5 to 100 µM
- detection limit (3σ/slope) for H2S [4, 5]: 3.2 µM
- time for fluorescence intensity at 500 nm to reach the maximum value ([4]; KF-DNBS 25 μM, HSA 100 μM, 2-FBBA 2 mM, SPB pH 7.4, H2S added, 37° C.): ≤ 20 min
- H2S response in various buffer conditions ([4]; KF-DNBS with HSA, H2S 100 μM, pH 5 to pH 9, 20 mM): worked well

- melting point: 250 to 251 °C
- fluorescence shift by addition of HSA ([3]; 25 μM, 10% DMSO, HSA 100 μM): shifted slightly from 550 to 500
- HSA concentration range of linear fluorescence increase [3]: 5 to 50 µM
Compound: CCN(CC)c1ccc(-c2cc3c(s2)c(-c2ccc(O)cc2)cc(=O)n3C)cc1 [KF, 2-(4-(diethylamino)phenyl)-7-(4-hydroxyphenyl)-4-methylthieno[3,2-b]pyridin-5(4H)-one]
